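Briefly, cells in 96-well plates were exposed to five compound concentrations for 48 h, and endpoints were estimated by linear interpolation. The concentration for 50% growth inhibition is given as GI50. TGI: total growth inhibition.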
How the values were obtained:
Experiment in all cases: NCI anticancer screen, dose series, 48 h
786-0 renal = test system: 786-0 renal
A498 renal = test system: A498 renal
A549 NSCLC = test system: A549 NSCLC
ACHN renal = test system: ACHN renal
BT-549 breast = test system: BT-549 breast
CAKI-1 renal = test system: CAKI-1 renal
CCRF-CEM leukemia = test system: CCRF-CEM leukemia
COLO 205 colon = test system: COLO 205 colon
DU-145 prostate = test system: DU-145 prostate
EKVX NSCLC = test system: EKVX NSCLC
HCC-2998 colon = test system: HCC-2998 colon
HCT-116 colon = test system: HCT-116 colon
HCT-15 colon = test system: HCT-15 colon
HL-60(TB) leukemia = test system: HL-60(TB) leukemia
HOP-62 NSCLC = test system: HOP-62 NSCLC
HOP-92 NSCLC = test system: HOP-92 NSCLC
HS 578T breast = test system: HS 578T breast
HT29 colon = test system: HT29 colon
IGROV1 ovarian = test system: IGROV1 ovarian
K-562 leukemia = test system: K-562 leukemia
KM12 colon = test system: KM12 colon
LOX IMVI melanoma = test system: LOX IMVI melanoma
M14 melanoma = test system: M14 melanoma
MALME-3M melanoma = test system: MALME-3M melanoma
MCF7 breast = test system: MCF7 breast
MDA-MB-231 breast = test system: MDA-MB-231 breast
MDA-MB-435 = test system: MDA-MB-435
MOLT-4 leukemia = test system: MOLT-4 leukemia
NCI-H226 lung = test system: NCI-H226 lung
NCI-H23 lung = test system: NCI-H23 lung
NCI-H460 lung = test system: NCI-H460 lung
NCI-H522 lung = test system: NCI-H522 lung
NCI/ADR-RES ovarian = test system: NCI/ADR-RES ovarian
OVCAR-3 ovarian = test system: OVCAR-3 ovarian
OVCAR-4 ovarian = test system: OVCAR-4 ovarian
OVCAR-5 ovarian = test system: OVCAR-5 ovarian
PC-3 prostate = test system: PC-3 prostate
RPMI-8226 leukemia = test system: RPMI-8226 leukemia
RXF 393 renal = test system: RXF 393 renal
SF-268 CNS = test system: SF-268 CNS
SF-295 CNS = test system: SF-295 CNS
SF-539 CNS = test system: SF-539 CNS
SK-MEL-2 melanoma = test system: SK-MEL-2 melanoma
SK-MEL-28 melanoma = test system: SK-MEL-28 melanoma
SK-MEL-5 melanoma = test system: SK-MEL-5 melanoma
SK-OV-3 ovarian = test system: SK-OV-3 ovarian
SN12C renal = test system: SN12C renal
SNB-19 CNS = test system: SNB-19 CNS
SNB-75 CNS = test system: SNB-75 CNS
SR leukemia = test system: SR leukemia
SW-620 colon = test system: SW-620 colon
T-47D breast = test system: T-47D breast
TK-10 renal = test system: TK-10 renal
U251 CNS = test system: U251 CNS
UACC-257 melanoma = test system: UACC-257 melanoma
UACC-62 melanoma = test system: UACC-62 melanoma
UO-31 renal = test system: UO-31 renal

## CCCCN(CCCC)CCCN=c1nc2c(c(N)n1-c1ccccc1)c(=S)n(-c1ccccc1)c(=S)n2-c1ccccc1
786-0 renal
  GI50: 501 nM
  TGI: 1080 nM
A498 renal
  GI50: 1060 nM
  TGI: 2390 nM
A549 NSCLC
  GI50: 1460 nM
  TGI: 3480 nM
ACHN renal
  GI50: 567 nM
  TGI: 1800 nM
BT-549 breast
  GI50: 1670 nM
  TGI: 3380 nM
CAKI-1 renal
  GI50: 384 nM
  TGI: 1490 nM
CCRF-CEM leukemia
  GI50: 215 nM
COLO 205 colon
  GI50: 329 nM
  TGI: 1390 nM
DU-145 prostate
  GI50: 1340 nM
  TGI: 2750 nM
EKVX NSCLC
  GI50: 840 nM
  TGI: 2690 nM
HCC-2998 colon
  GI50: 825 nM
  TGI: 2520 nM
HCT-116 colon
  GI50: 412 nM
  TGI: 1500 nM
HCT-15 colon
  GI50: 309 nM
  TGI: 1140 nM
HL-60(TB) leukemia
  GI50: 211 nM
  TGI: > 100000 nM
HOP-62 NSCLC
  GI50: 1450 nM
  TGI: 3030 nM
HOP-92 NSCLC
  GI50: 229 nM
  TGI: 830 nM
HS 578T breast
  GI50: 780 nM
  TGI: 3160 nM
HT29 colon
  GI50: 276 nM
  TGI: 784 nM
IGROV1 ovarian
  GI50: 1900 nM
  TGI: 3790 nM
K-562 leukemia
  GI50: 540 nM
  TGI: > 100000 nM
KM12 colon
  GI50: 415 nM
  TGI: 1460 nM
LOX IMVI melanoma
  GI50: 303 nM
  TGI: 773 nM
M14 melanoma
  GI50: 206 nM
  TGI: 424 nM
MALME-3M melanoma
  GI50: 604 nM
  TGI: 1310 nM
MCF7 breast
  GI50: 361 nM
  TGI: 1510 nM
MDA-MB-231 breast
  GI50: 555 nM
  TGI: 1530 nM
MDA-MB-435
  GI50: 301 nM
  TGI: 930 nM
MOLT-4 leukemia
  GI50: 141 nM
  TGI: > 34100 nM
NCI-H226 lung
  GI50: 1610 nM
  TGI: 3110 nM
NCI-H23 lung
  GI50: 1880 nM
  TGI: 3970 nM
NCI-H460 lung
  GI50: 483 nM
  TGI: 1710 nM
NCI-H522 lung
  GI50: 664 nM
  TGI: 2230 nM
NCI/ADR-RES ovarian
  GI50: 2090 nM
  TGI: 4120 nM
OVCAR-3 ovarian
  GI50: 997 nM
  TGI: 2300 nM
OVCAR-4 ovarian
  GI50: 994 nM
  TGI: 2460 nM
OVCAR-5 ovarian
  GI50: 1670 nM
  TGI: 3240 nM
PC-3 prostate
  GI50: 590 nM
  TGI: 1940 nM
RPMI-8226 leukemia
  GI50: 159 nM
  TGI: 327 nM
RXF 393 renal
  GI50: 1960 nM
  TGI: 4750 nM
SF-268 CNS
  GI50: 1140 nM
  TGI: 2470 nM
SF-295 CNS
  GI50: 1400 nM
  TGI: 3000 nM
SF-539 CNS
  GI50: 1360 nM
  TGI: 2840 nM
SK-MEL-2 melanoma
  GI50: 1740 nM
  TGI: 3470 nM
SK-MEL-28 melanoma
  GI50: 173 nM
  TGI: 338 nM
SK-MEL-5 melanoma
  GI50: 1020 nM
  TGI: 2300 nM
SK-OV-3 ovarian
  GI50: 1550 nM
  TGI: 3040 nM
SN12C renal
  GI50: 1410 nM
  TGI: 2790 nM
SNB-19 CNS
  GI50: 1290 nM
  TGI: 2740 nM
SNB-75 CNS
  GI50: 719 nM
  TGI: 2110 nM
SR leukemia
  GI50: 273 nM
  TGI: 1460 nM
SW-620 colon
  GI50: 568 nM
  TGI: 2620 nM
T-47D breast
  GI50: 1730 nM
  TGI: 3790 nM
TK-10 renal
  GI50: 1280 nM
  TGI: 2690 nM
U251 CNS
  GI50: 340 nM
  TGI: 1270 nM
UACC-257 melanoma
  GI50: 609 nM
  TGI: 1270 nM
UACC-62 melanoma
  GI50: 714 nM
  TGI: 2020 nM
UO-31 renal
  GI50: 389 nM
  TGI: 1020 nM

From PubChem BioAssay (NCI)
